Tests used:
GP2d cells = assay: Cellular proliferation assay in GP2d cells (CellTiterGlo luminescent cell viability assay); format: cell-based; details: 72 hours treatment, CellTiter-Glo
Description: Example 32: Cellular Proliferation Assay in GP2d Cells
The inhibitory effect of test compounds on cellular proliferation was determined using CellTiterGlo® luminescent cell viability assay (Promega) following manufacturer's instruction.
GP2d cells (ECACC #95090715) were cultured in DMEM medium supplemented with 10% fetal bovine serum, 10 U/ml penicillin and 10 ug/ml streptomycin. Cells were plated in 96-well plates at a density of 2000 cells/well and allowed attach for […]. Then the cells were treated with various concentrations of test compounds for 72 hours. CellTiter-Glo® Reagent was added to wells and incubated for 10 minutes at room temperature. The plates were read on GloMax® 96 Microplate Luminometer or compatible microplate readers. The percentage of cellular viability was calculated as: […]

p-ERK in AGS cells = assay: p-ERK assay in AGS cells (fixed cells, anti-p-ERK / β-Actin antibodies, IR imaging); format: cell-based; details: Homo sapiens, 3 h at 37° C., p-ERK detected by antibody with β-Actin, IR fluorescence
Description: The expression of p-ERK was detected in this assay. At first, the AGS cells (40000 cells/well) were seeded in 96-well plate culture overnight and treated with KRAS-G12D compounds inhibitors at concentrations of 1, 0.33, 0.11, 0.03, 0.01, 0.004, 0.001, 0.0004, 0.0001 μM for 3 h at 37° C. Then, add an equal volume (100 μL) of 8% paraformaldehyde solution to fix and crosslink the cells to the microplate for 15 minutes. Add 100 μL of 1× permeabilization solution to wells for 30 min and add 100 μL of 1× blocking solution for 2 h. Wash with PBS 3 times after each reaction. At last, Incubation with primary antibody (Anti-mouse β-Actin and Anti-rabbit p-ERK) and secondary antibody (Goat anti-Mouse IgG H&L IRDye 800CW and Goat anti-Rabbit IgG H&L IRDye 680RW) for 2 h, As appropriate, image the microplate with an IR scanner or develop the HRP labeled microplate and read it with a spectrophotometer. The fluorescence signal was monitored using a microplate reader (Azure biosystems, Sapphire biomolecular imager) using excitation and emission wavelengths of 680 and 800 nm, respectively. Export data. The inhibitor dose-reponse curves were analyzed using normalized IC50 regression curve fitting with control based normalization.

Row | SMILES | IC50 (GP2d cells) | IC50 (p-ERK in AGS cells)
1 | Fc1c(-c2cccc3ccc4c(c23)CCO4)ncc2c(N3C[C@H]4CC[C@@H](C3)N4)nc(OC[C@@]34CCCN3C[C@H](F)C4)nc12 [Example 3, 4-((1R,5S)-3,8-diazabicyclo[3.2.1]octan-3-yl)-7-(1,2-dihydronaphtho[2,1-b]furan-9-yl)-8-fluoro-2-(((2R,7aS)-2-fluorotetrahydro-1H-pyrrolizin-7a(5H)-yl)methoxy)pyrido[4,3-d]pyrimidine] | 8800 nM | 8800 nM
2 | Fc1c(-c2cccc3ccc4occc4c23)ncc2c(N3C[C@H]4CC[C@@H](C3)N4)nc(OC[C@@]34CCCN3C[C@H](F)C4)nc12 [Example 4, 4-((1R,5S)-3,8-diazabicyclo[3.2.1]octan-3-yl)-8-fluoro-2-(((2R,7aS)-2-fluorotetrahydro-1H-pyrrolizin-7a(5H)-yl)methoxy)-7-(naphtho[2,1-b]furan-9-yl)pyrido[4,3-d]pyrimidine] | 4750 nM | 4900 nM
3 | Oc1cc(-c2ncc3c(N4C[C@H]5CC[C@@H](C4)N5)nc(OC[C@@]45CCCN4C[C@H](F)C5)nc3c2F)c2c(ccc3occc32)c1 [Example 5, 9-(4-((1R,5S)-3,8-diazabicyclo[3.2.1]octan-3-yl)-8-fluoro-2-(((2R,7aS)-2-fluorotetrahydro-1H-pyrrolizin-7a(5H)-yl)methoxy)pyrido[4,3-d]pyrimidin-7-yl)naphtho[2,1-b]furan-7-ol] | 2860 nM | 37 nM
4 | Oc1cc(-c2ncc3c(N4C[C@H]5CC[C@@H](C4)N5)nc(OC[C@@]45CCCN4C[C@H](F)C5)nc3c2F)c2c3c(ccc2c1)OCC3 [Example 6, 9-(4-((1R,5S)-3,8-diazabicyclo[3.2.1]octan-3-yl)-8-fluoro-2-(((2R,7aS)-2-fluorotetrahydro-1H-pyrrolizin-7a(5H)-yl)methoxy)pyrido[4,3-d]pyrimidin-7-yl)-1,2-dihydronaphtho[2,1-b]furan-7-ol] | 9290 nM | 588 nM
5 | Oc1cc(-c2ncc3c(N4CC5CCC4CN5)nc(OC[C@@]45CCCN4C[C@H](F)C5)nc3c2F)c2c3c(ccc2c1)CCC3 (stereo partly drawn) [Example 7, 9-(4-(2,5-diazabicyclo[2.2.2]octan-2-yl)-8-fluoro-2-(((2R,7aS)-2-fluorotetrahydro-1H-pyrrolizin-7a(5H)-yl)methoxy)pyrido[4,3-d]pyrimidin-7-yl)-2,3-dihydro-1H-cyclopenta[a]naphthalen-7-ol] | 920 nM | 149 nM
6 | CN(C)CC1(COc2nc(N3C[C@H]4CC[C@@H](C3)N4)c3cnc(-c4cc(O)cc5ccc6c(c45)CCC6)c(F)c3n2)CC1 [Example 8, 9-(4-((1R,5S)-3,8-diazabicyclo[3.2.1]octan-3-yl)-2-((1-((dimethylamino)methyl)cyclopropyl)methoxy)-8-fluoropyrido[4,3-d]pyrimidin-7-yl)-2,3-dihydro-1H-cyclopenta[a]naphthalen-7-ol] | 284 nM | 41 nM
7 | Oc1cc(-c2ncc3c(N4C[C@H]5CC[C@@H](C4)N5)nc(OCC4(CN5CCOCC5)CC4)nc3c2F)c2c3c(ccc2c1)CCC3 [Example 9, 9-(4-((1R,5S)-3,8-diazabicyclo[3.2.1]octan-3-yl)-8-fluoro-2-((1-(morpholinomethyl)cyclopropyl)methoxy)pyrido[4,3-d]pyrimidin-7-yl)-2,3-dihydro-1H-cyclopenta[a]naphthalen-7-ol] | 175 nM | 31 nM
8 | Oc1cc(-c2ncc3c(N4C[C@H]5CC[C@@H](C4)N5)nc(OCCCN4C5CCC4COC5)nc3c2F)c2c3c(ccc2c1)CCC3 [Example 10, 9-(2-(3-(3-oxa-8-azabicyclo[3.2.1]octan-8-yl)propoxy)-4-((1R,5S)-3,8-diazabicyclo[3.2.1]octan-3-yl)-8-fluoropyrido[4,3-d]pyrimidin-7-yl)-2,3-dihydro-1H-cyclopenta[a]naphthalen-7-ol] | 261 nM | 205 nM
9 | C[C@@H]1COCCN1CC1(COc2nc(N3C[C@H]4CC[C@@H](C3)N4)c3cnc(-c4cc(O)cc5ccc6c(c45)CCC6)c(F)c3n2)CC1 [Example 11, 9-(4-((1R,5S)-3,8-diazabicyclo[3.2.1]octan-3-yl)-8-fluoro-2-((1-(((R)-3-methylmorpholino)methyl)cyclopropyl)methoxy)pyrido[4,3-d]pyrimidin-7-yl)-2,3-dihydro-1H-cyclopenta[a]naphthalen-7-ol] | 169 nM | 135 nM
10 | C[C@@H](COc1nc(N2C[C@H]3CC[C@@H](C2)N3)c2cnc(-c3cc(O)cc4ccc5c(c34)CCC5)c(F)c2n1)CN1C2CCC1COC2 [Example 12, 9-(2-((2R)-3-(3-oxa-8-azabicyclo[3.2.1]octan-8-yl)-2-methylpropoxy)-4-((1R,5S)-3,8-diazabicyclo[3.2.1]octan-3-yl)-8-fluoropyrido[4,3-d]pyrimidin-7-yl)-2,3-dihydro-1H-cyclopenta[a]naphthalen-7-ol] | 48.4 nM | 17 nM
11 | CC1(O)CCCN(c2nc(OCC34CCCN3C[C@H](F)C4)nc3c(F)c(-c4cc(O)cc5ccc6c(c45)CCC6)ncc23)C1 (stereo partly drawn) [Example 13, 1-(8-fluoro-2-(((2R)-2-fluorotetrahydro-1H-pyrrolizin-7a(5H)-yl)methoxy)-7-(7-hydroxy-2,3-dihydro-1H-cyclopenta[a]naphthalen-9-yl)pyrido[4,3-d]pyrimidin-4-yl)-3-methylpiperidin-3-ol] | 10 nM | 22 nM
12 | CC1CCc2ccc3cc(O)cc(-c4ncc5c(N6C[C@H]7CC[C@@H](C6)N7)nc(OC[C@@]67CCCN6C[C@H](F)C7)nc5c4F)c3c21 (stereo partly drawn) [Example 14, 9-(4-((1R,5S)-3,8-diazabicyclo[3.2.1]octan-3-yl)-8-fluoro-2-(((2R,7aS)-2-fluorotetrahydro-1H-pyrrolizin-7a(5H)-yl)methoxy)pyrido[4,3-d]pyrimidin-7-yl)-1-methyl-2,3-dihydro-1H-cyclopenta[a]naphthalen-7-ol] | 429 nM | 85 nM
13 | Oc1cc(-c2ncc3c(N4C[C@H]5CC[C@@H](C4)N5)nc(OC[C@@]45CCCN4C[C@H](F)C5)nc3c2F)c2c(ccc3ccsc32)c1 [Example 15, 9-(4-((1R,5S)-3,8-diazabicyclo[3.2.1]octan-3-yl)-8-fluoro-2-(((2R,7aS)-2-fluorotetrahydro-1H-pyrrolizin-7a(5H)-yl)methoxy)pyrido[4,3-d]pyrimidin-7-yl)naphtho[1,2-b]thiophen-7-ol] | 541 nM | 159 nM
14 | Oc1cc(-c2ncc3c(N4C[C@H]5CC[C@@H](C4)N5)nc(OC[C@@]45CCCN4C[C@H](F)C5)nc3c2F)c2c3c(ccc2c1)CCCC3 [Example 16, 4-(4-((1R,5S)-3,8-diazabicyclo[3.2.1]octan-3-yl)-8-fluoro-2-(((2R,7aS)-2-fluorotetrahydro-1H-pyrrolizin-7a(5H)-yl)methoxy)pyrido[4,3-d]pyrimidin-7-yl)-5,6,7,8-tetrahydrophenanthren-2-ol] | 849 nM | 5 nM
15 | Oc1cc(-c2ncc3c(N4C[C@H]5CC[C@@H](C4)N5)nc(OC[C@@]45CCCN4C[C@H](F)C5)nc3c2F)c2c(c1)cc1n2CCC1 [Example 19, 5-(4-((1R,5S)-3,8-diazabicyclo[3.2.1]octan-3-yl)-8-fluoro-2-(((2R,7aS)-2-fluorotetrahydro-1H-pyrrolizin-7a(5H)-yl)methoxy)pyrido[4,3-d]pyrimidin-7-yl)-2,3-dihydro-1H-pyrrolo[1,2-a]indol-7-ol] | 3060 nM | 
16 | Oc1cc(-c2ncc3c(N4C[C@H]5CC[C@@H](C4)N5)nc(OC[C@@]45CCCN4C[C@H](F)C5)nc3c2F)c2c(ccn3cccc23)c1 [Example 22, 10-(4-((1R,5S)-3,8-diazabicyclo[3.2.1]octan-3-yl)-8-fluoro-2-(((2R,7aS)-2-fluorotetrahydro-1H-pyrrolizin-7a(5H)-yl)methoxy)pyrido[4,3-d]pyrimidin-7-yl)pyrrolo[2,1-a]isoquinolin-8-ol] | 3340 nM | 
17 | Oc1cc(-c2cc3nc(OC[C@@]45CCCN4C[C@H](F)C5)nc(N4C[C@H]5CC[C@@H](C4)N5)c3cn2)c2c3c(ccc2c1)CCC3 [Example 30, 9-(4-((1R,5S)-3,8-diazabicyclo[3.2.1]octan-3-yl)-2-(((2R,7aS)-2-fluorotetrahydro-1H-pyrrolizin-7a(5H)-yl)methoxy)pyrido[4,3-d]pyrimidin-7-yl)-2,3-dihydro-1H-cyclopenta[a]naphthalen-7-ol] | 409 nM | 
18 | Oc1cc(-c2c(Cl)cc3c(N4C[C@H]5CC[C@@H](C4)N5)nc(OC[C@@]45CCCN4C[C@H](F)C5)nc3c2F)c2c3c(ccc2c1)CCC3 [Example 31, 9-(4-((1R,5S)-3,8-diazabicyclo[3.2.1]octan-3-yl)-6-chloro-8-fluoro-2-(((2R,7aS)-2-fluorotetrahydro-1H-pyrrolizin-7a(5H)-yl)methoxy)quinazolin-7-yl)-2,3-dihydro-1H-cyclopenta[a]naphthalen-7-ol] | 737 nM | 

— patent publication US20250276982A1, “KRAS INHIBITORS” (ASCENTAGE PHARMA (SUZHOU) CO., LTD., priority 2021, published 2025)
